This note sets out measurements from patent publication US20120329860A1, “Uses of Beta-Nicotinamide Adenine Dinucleotide” (MEDICAL COLLEGE OF GEORGIA INSTITUTE, INC, priority 2010, published 2012).

SMILES strings stand for the structures.

For data set [1], the system named is LPS-induced ALI in mice. The data set is described as follows: Evans Blue Dye-albumin (EBD) lung permeability. It counts as in vivo. How it is done:
Mice were anesthetized with ketamine (150 mg/kg) and acetylpromazine (15 mg/kg) intraperitoneally (i.p.) before the exposure of the trachea via neck incision and intubation with 20-guage catheter and the right internal jugular vein was exposed via right chest incision for PBS or b-NAD installation. The mice were randomly divided into groups. LPS or sterile saline was instilled intratracheally (i.t.) via a 20-gauge catheter. Simultaneously, mice received either b-NAD (5.4 mg/kg, equivalent to final calculated plasma concentration […] or PBS in the control group intravenously (i.v.) through the internal jugular vein (IJ). The animals were allowed to recover for 18 hr. EBD was given through the IJ 2 hr prior to termination of the experiment. At termination, bronchoalveolar lavage (BAL) was collected. BAL was 1ml of 10% HBSS through the endotracheal catheter immediately on sacrifice with aspiration. BAL was immediately centrifuged and processed. After the BAL, ethylenediaminetetraacetic acid (EDTA) was used to flush the lungs of blood via the right heart ventricle and the lungs were then harvested. BAL and lungs were collected and stored at −70° C. for evaluation of lung injury.
Measurement of EBD concentration in the lungs was performed by injection of EBD (20 mg/kg) into the right internal jugular vein 2 hr before the termination of the experiment to assess the vascular leak. Lungs free of blood were weighed and snap frozen in liquid nitrogen. The left lung was weighed and homogenized, then incubated with two volumes of formamide (18 hr, 60° C.) and centrifuged (5000 g, 30 min, 20° C.). The extravasated EBD concentration (mg/g, lung) in the lung homogenate was calculated against a standard curve. In a separate experiment the EBD was injected into the right internal jugular vein as described above at 2 hrs prior to termination of the experiment and the left lung gross anatomy view was photographed with a Leica NCL150 Camera.

For data set [2], the system named is LPS-induced ALI in mice. The data set can be described thus: Lung histology (H&E). Type of data set: in vivo. How it is done: Lungs perfused free of blood after perfusion with EDTA, were immersed in 5% buffered paraformaldehyde for 18 hr at 4° C. prior to histological evaluation by hematoxylin and eosin staining (H&E staining). The right lung lobes were used for consistency. H&E staining was done by deparafinizing and hydrating the slides to water. The slides were stained in Harris Hematoxylin for 15 min and Eosin for 30 sec. The slides were dehydrated, cleared and mounted with cytoseal.

On to `NC(=O)C1=CN([C@@H]2O[C@H](COP(=O)(O)OP(=O)(O)OC[C@H]3O[C@@H](n4cnc5c(N)ncnc54)[C@H](O)[C@@H]3O)[C@@H](O)[C@H]2O)C=CC1` [β-NAD, beta-nicotinamide adenine dinucleotide], for which the “EBD leakage into lung parenchyma on gross examination” value in the data set on LPS-induced ALI in mice [1] (LPS 0.9 mg/kg i.t. and b-NAD 5.46 mg/kg, 24 hr) is “minimal leakage”. For the same compound, the “EBD-albumin in lung (average)” value came out at 10.41 µg/g in the data set on LPS-induced ALI in mice [1] (b-NAD/LPS treated mice) and 6.54 µg/g in the data set on LPS-induced ALI in mice [1] (β-NAD/saline control (no LPS)). Moreover, the “interstitial edema and infiltration of neutrophils (histology)” value in the data set on LPS-induced ALI in mice [2] (LPS/β-NAD vs LPS treated lung, 18 hr) is listed as “less prominent”. The “lung histology, β-NAD alone” value in the data set with LPS-induced ALI in mice [2] (β-NAD alone, no LPS) is on record as “no effect”.
